From the supplement of paper PMC5412046

Columns and labels:
SB.mhdgc-1 = assay: AC50 for growth inhibition (viability) (log10 M); higher = less potent; conditions: SB.mhdgc-1 (hereditary c.1380delA CDH1 gastric cancer)
Method in brief: (§1)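 Gastric cancer cells derived from patients with hereditary or sporadic disease were seeded at 500 cells in 5 μL medium per 1536 well. A pintool delivered 23 nL of compound in DMSO, as 11 threefold dilutions from a final 46 μM. After 48 h, CellTiter-Glo was added for 30 min at room temperature and luminescence was read on a ViewLux. The log half-maximal activity concentration was taken from a four-parameter fit of viability normalised to DMSO, using only high-quality curve classes.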

SB.msgc-1 = assay: as above; conditions: SB.msgc-1 (sporadic gastric cancer)
Method in brief: as §1

Compound | AC50 for growth inhibition (log10 M) (SB.mhdgc-1) | AC50 for growth inhibition (log10 M) (SB.msgc-1)
c1ccc(CCCN2CCN(CCOC(c3ccccc3)c3ccccc3)CC2)cc1 | -4.73 | -4.68
c1ccc(CNc2nc(NCc3ccccc3)c3ccccc3n2)cc1 | -5.03 | -5.03
CC(=O)Nc1sc2c(c1-c1nc3ccccc3s1)CNC2 | -6.08 | -4.68
CC(C)Oc1ccc(C(=O)N[C@H](CNC(=O)CN(C)C)Cc2ccc(-c3cn4cccc([C@H](C)O)c4n3)cc2)cc1Cl | -5.18 | -6.63
C=CC(=O)Nc1cccc(Nc2nc(NC3CCC(N(C)C)CC3)nc3c2ncn3C(C)C)c1 (stereo not given) | -7.88 | -7.43
CC(NCc1ccc2c(c1)[nH]/c(=N\C(=O)c1ccc(-c3cn[nH]c3)s1)n2CC(C)(C)O)C(C)(C)C (stereo not given) | -5.43 | -6.18
CC(O)(C#Cc1ccc2c(c1)N(c1nc(N)ncc1Cl)CC2)c1nccs1 (stereo not given) | -4.73 | -4.88
Cc1c(C(=O)c2cccc3ccccc23)c2cccc3c2n1[C@H](CN1CCOCC1)CO3 | -4.93 | -5.08
Cc1ccc(CN2CCNCC2)cc1NC(=O)CNc1ccc(F)c(F)c1 | -5.93 | -5.38
Cc1ccc2nc(NCCN)c3ncc(C)n3c2c1 | -6.18 | -5.18
CC1=CC=CC=C1N2\C(=N/C3=C(C(=CC=C3)C)C2=O)C[N]4C=NC5=C4N=CN=C5N | -5.43 | -6.23
Cc1cccc(-c2[nH]c(C(C)(C)C)nc2-c2ccc3c(c2)OCO3)n1 | -4.83 | -4.88
Cc1cccc(-c2[nH]c(C(C)(C)C)nc2-c2ccc3nccnc3c2)n1 | -4.83 | -5.73
Cc1n[nH]c2ccc(-c3cncc(OC[C@@H](N)Cc4c[nH]c5ccccc45)c3)cc12 | -6.03 | -6.08
CCc1cc(-c2n[nH]c(C)c2-c2ccc3c(c2)OCCO3)c(O)cc1O | -5.53 | -5.68
CCCCOc1c(C(=O)c2c(F)cc(C)cc2F)cnc2[nH]ncc12 | -5.63 | -5.63
CCN(CC)CCCCNc1ncc2c(n1)N(C)C(=O)N(c1c(Cl)c(OC)cc(OC)c1Cl)C2 | -4.78 | -4.63
CCOC(=O)N1CCN(/[N+]([O-])=N/Oc2ccc([N+](=O)[O-])cc2[N+](=O)[O-])CC1 | -5.23 | -4.88
Cc1ccc(NC(=O)c2cccc(N(C)C)c2)cc1NC(=O)c1ccc(O)cc1 | -6.48 | -5.78
CN(C)CCCN\C1=C\2C(=O)N(C)C(=O)\N=C2N(C)C3=C1C=CC=C3 | -5.73 | -4.73
CNC(=O)c1ccc(Nc2cc(Nc3ccccc3[S+](=O)([O-])C(C)C)c3cc[nH]c3n2)nc1 | -4.78 | -4.68
COc1cc(C)c(Sc2cnc(NC(=O)c3ccc(CNC(C)C(C)(C)C)cc3)s2)cc1C(=O)N1CCN(C(C)=O)CC1 (stereo not given) | -4.98 | -4.98
COc1cc(N2CCC(C(N)=O)CC2)ccc1Nc1nc(N)c(Cl)c(Nc2ccccc2[S+](=O)([O-])C(C)C)n1 | -6.03 | -5.58
COc1cc2nc(N3CCCN(C)CC3)nc(NC3CCN(Cc4ccccc4)CC3)c2cc1OC | -5.28 | -4.88
COc1cccc2c(NCc3ccccc3)nc(-n3c(N)nc4ccccc43)nc12 | -5.13 | -5.08

Compound | AC50 for growth inhibition (log10 M) (SB.mhdgc-1) | AC50 for growth inhibition (log10 M) (SB.msgc-1)
COC1=CC(=CC(=C1)C2=CC=C3N=CC\4=C(N(C(=O)\C=C4)C5=CC(=C(C=C5)N6CCNCC6)C(F)(F)F)C3=C2)OC | -5.33 | -5.43
COc1cc(NC(=O)c2ccc(-c3ccc(Cl)cc3)o2)cc(OC)c1 | -5.73 | -5.58
COc1cc(C(=O)NC2CCN(C)CC2)ccc1Nc1ncc2c(n1)N(C1CCCC1)CCC(=O)N2C(C)C | -5.13 | -4.73
COc1cc2ncnc(Nc3cccc(Br)c3)c2cc1OC | -7.08 | -6.88
COC1=CC=CC2=C1C(=NC(=N2)C3=CC=CS3)NN4C(=O)\C=C(C)/C4=O | -5.18 | -4.88
COC1CCC(C(=O)c2ccc3nc4c(cc3c2)CCCO4)CC1 (stereo not given) | -4.78 | -4.78
C[C@H](NC(=O)c1sccc1OCc1ccc(Cl)cc1)c1ccccc1 | -4.98 | -4.73
C[C@H]1CN(C[C@@H](C)O1)CC(=O)NC2=CC=C3SC4=C(CC3=C2)C=CC=C4\C5=C\C(=O)\C=C(/O5)N6CCOCC6 | -5.23 | -5.28
C[C@]\1(CCS\C(=N1)N)C2=CC(=C(F)C=C2F)C3=CN=CN=C3 | -4.73 | -4.63
CC(=O)N1CCN(c2ccc(OCc3nn(C)c(C)c3-c3cccc4c(CCCOc5cccc6ccccc56)c(C(=O)O)n(Cc5cccnc5)c34)cc2)CC1 | -5.63 | -5.63
Cc1cc(OCCCc2c(C(=O)O)n(Cc3cccnc3)c3c(-c4c(COc5ccc(N6CCN([S+](C)(=O)[O-])CC6)cc5)nn(C)c4C)cccc23)cc(C)c1Cl | -4.73 | -4.63
O=C(Nc1ccc(F)c(C(F)(F)F)c1)Nc1nnc(-c2ccncc2)s1 | -5.53 | -5.28
C=CC(=O)N1CCC[C@@H](n2nc(-c3ccc(Oc4ccccc4)cc3)c3c(N)ncnc32)C1 | -5.98 | -7.48
Nc1n[nH]c2nnc(-c3c(-c4ccccc4)nn4ccccc34)cc12 | -5.03 | -5.23
NC\1=N\C(=O)N(\C=C1F)[C@H]2C[C@H](O)[C@@H](CO)O2 | -8.38 | -6.53
N[S+]([O-])(=O)C1=CC=C(NC/2=C/C(=O)C3=CC=CC=C3C2=O)C=C1 | -6.23 | -4.98
O=C(NC1CC1)c1cccc(-c2ccc3c(NC(=O)C4CC4)n[nH]c3c2)c1 | -5.93 | -6.03
O=C(NOCC1CC1)c1ccc(F)c(F)c1Nc1ccc(I)cc1Cl | -4.78 | -4.83
O=C1NC(=O)/C(=C/c2ccc3nccnc3c2)S1 | -4.84 | -4.89
O=C(O)C1CCCN(CCC=C(c2ccccc2)c2ccccc2)C1 (stereo not given) | -5.53 | -5.03
O=[S+]([O-])(O)c1ccc2cc(/N=N/c3cc([S+](=O)([O-])O)c4cccnc4c3O)ccc2c1 | -4.68 | -4.93
O=C(CC12CC3CC(CC(C3)C1)C2)Nc1cccc2nc(NCCNCCO)ccc12 | -4.83 | -4.78
O=C1CSC(=O)N1C(CCc1ccncc1)COc1ccc(-c2cccc([N+](=O)[O-])c2)cc1 (stereo not given) | -5.88 | -5.78
O=C(Nc1nc2ccccc2n1CCN1CCOCC1)c1cccc([N+](=O)[O-])c1 | -4.83 | -4.83
NC(CSC(c1ccccc1)(c1ccccc1)c1ccccc1)C(=O)O (stereo in doubt) [S-Trityl-L-cysteine] | -5.58 | -5.03
